These are literature values, as cited in US20050048573A1, “PDE5A crystal structure and uses” (Plexxikon, Inc., priority 2003, published 2005).

The target in this series is PDE5 (Bos taurus, UniProt Q28156). Conditions: allosteric sites; read-out: KD of PDE5 for binding cGMP in the allosteric sites.

As a reminder, the Kd is the concentration at which binding is half-saturated. Take `Nc1nc2c(ncn2[C@@H]2O[C@@H]3COP(=O)(O)O[C@H]3[C@H]2O)c(=O)[nH]1` [cGMP]: the Kd is approximately 200 nM.
